Data published in patent publication US20060211744A1, “3-Pyridinecarboxamide reduces nerve degeneration” (Children's Medical Center, priority 2005, published 2006).

Experiments:
[1] = system: transected axons from cultured dorsal root ganglia (DRG); test: HPLC measurement of NAD and ATP levels in degenerating axons of cultured DRG; type: cell-based
Protocol: (§1) As a first step in examining the role of NAD in Wallerian degeneration, we used an ultra-sensitive high-performance liquid chromatography (HPLC) method (Micheli and Sestini, 1997) to measure the concentration of NAD and its derivatives in degenerating axons. To do this, the acidic lysates were prepared from axonal segments collected at different time points after transecting the axons from cultured dorsal root ganglia (DRG) and resolved by reverse-phase chromatography. 2 hr after axotomy, when the transected axons were still morphologically indistinguishable from their uncut controls, NAD levels began to decrease. This NAD decrease continued over the course of degeneration, reaching about 50% at 4 hr post-axotomy, to almost undetectable levels by 6 hr after axotomy, when early morphological signs of degeneration began to develop. […] By a similar approach of alkaline extraction (Micheli and Sestini, 1997), it has been difficult for us to detect NADH in the axonal extracts, presumably due to the low abundance of NADH and the high NAD/NADH ratio reported in mammalian cells (Zhang et al., 2002, Kasischke et al., 2004, Kannurpatti et al., 2004).
In addition to acting as co-factors for Sirt1 and other NAD-dependent enzymes, NAD is also essential for ATP-synthesizing redox reactions which are involved in glycolysis and oxidative phosphorylation (Shibata et al., 1991). […]

[2] = system: experimental autoimmune encephalomyelitis (EAE) mice; type: in vivo
From the text: EAE is an inflammatory, demyelinating disease that can be induced by immunizing animals against myelin antigens, and is an accepted animal model for multiple sclerosis (MS) as it has similarities based on both the histopathology and the clinical course of the affected animals. In methods adapted from Lo et al. (J Neurophysiol. 2003 November;90(5):3566-71) we examine the effect of nicotinamide on axonal degeneration within the dorsal columns (cuneate fasciculus) and dorsal corticospinal tracts of the spinal cord.
Induction of EAE. Experiments are carried out in accordance with National Institutes of Health guidelines for the use of laboratory animals. C57/BL6 mice 6-10 wk of age are injected subcutaneously with 200 μl of an emulsion of 300 μg of rat myelin oligodendrocyte glycoprotein (MOG) 35-55 peptide (Keck Biotechnology Center, Yale University) in incomplete Freund's adjuvant (IFA, Sigma, St. Louis, Mo.) supplemented with 250-500 μg of Mycobacterium tuberculosis H37Ra (Difco, Detroit, Mich.). The MOG injection, with mycobacterium supplemented IFA, is repeated in the opposite flank 1 wk later. The mice also receive an injection of 250-500 ng pertussis toxin (Sigma) in 200 μl PBS ip immediately after the first immunization with MOG and then again 48 h later.
Nicotinamide treatment. Beginning on day 10 after the initial MOG injection, control and EAE-induced mice are fed pelleted mice chow incorporating nicotinamide (Sigma) to achieve an average daily consumption of 500 mg/kg nicotinamide. A separate group of EAE mice are fed the identical standard mice chow not containing nicotinamide. Serum nicotinamide levels are measured by HPLC (Chatzimichalakis et al, J Sep Sci. (2004) 27:1181-8) from two mice in each group on day 14 and on the day of either perfusion (days 27-28) or electrophysiological study (days 24-30).
Mice are observed daily for clinical signs and scored on a 0-6 scale, with 0.5 gradations for intermediate scores, as follows: 0, normal without clinical signs; 1, flaccid tail; 2, abnormal righting reflex; 3, partial hindlimb paralysis; 4, complete hindlimb paralysis; 5, moribund; and 6, death.
Electrophysiological recordings. Fourteen adult male C57/BL6 mice are used for assessing spinal cord conduction. Untreated EAE (n=6) and nicotinamide-treated EAE (n=4) mice are studied between days 24 and 30 and age-matched nicotinamide-treated mice (n=4) are used as controls. Mice are anesthetized with halothane, and deep anesthesia is maintained with 1.1% halothane through a tracheal cannula by artificial ventilation (75-80 strokes/min, 0.7 ml/stroke) and verified by the absence of a withdrawal reflex to noxious peripheral pinch. Heartbeats (˜360 beats/min) and body temperature are carefully monitored. Mice are fixed in a stereotaxic apparatus (Kopf Instruments). A midline incision is made through the skin, a laminectomy is performed, and the dura is carefully cut to expose the lower thoracic and lumbar spinal cord regions. Silver wire electrodes (0.01-in diam, A-M Systems) insulated except at the tips are used for stimulation of dorsal column axons at L4-5 and recording of compound action potentials (CAP) at T11-12. Using stereotaxic measurements, the electrodes are positioned 8 mm apart at the surface of the midline spinal cord. Pancuronium bromide (0.3 mg/kg, Sigma) is injected ip to prevent further muscular contractions throughout the experiment. The signal from the recording electrode is amplified with filters set at 300-3,000 Hz (Dam 80, WPI) and collected (CED 1401, Cambridge Electronic Design), and a computer is used for data analysis (Spike 2 program, Cambridge Electronic Design). Single-current pulses (0.05 ms) are applied through a stimulus isolation unit (A365, WPI, and Master-8, AMPI) in increments (0.2, 0.3, 0.6, 0.8, and 1 mA). The amplitude of CAP is calculated as the value between the positive and negative peaks of the biphasic wave. […]

[3] = system: cultured DRG neurons (transected axons); test: Axon degeneration after transection of axons of cultured DRG neurons (Wallerian degeneration); type: cell-based; conditions: sirturin inhibitors; nicotinamide at 50 μM
Protocol: as §1
To definitively determine whether preventing the local decrease in NAD levels could mediate axon protection, we employed soma-free axonal segments that have been separated from their soma as models to examine the protective effects of different pharmacological treatments. It has been shown that exogenously provided NAD, when directly added to the culture medium of DRG neurons, can be transported across the axonal membrane (Araki et al., 2004). Thus, we first examined the protective effects of different concentrations of NAD added to the culture before or after axon transection and removal of ganglia.
To further assess the local and nuclear contribution to such an NAD-dependent protection, we compared the protective effects of NAD provided at different time points. […] In this respect, our results are inconsistent with those shown by Araki et al (2004), possibly due to the different concentrations of NAD used in our studies (1-20 mM) and by Araki et al (0.1 to 1 mM).
We next attempted to explore the possible mechanisms underlying this local NAD-dependent axon protection. […] A possible explanation for this discrepancy between Araki et al (2004) and our results is the different approaches used to block Sirt1 activity. […] It is known that […], other sirturins exist and some of these proteins are localized in the cytoplasmic compartment (Onyango et al., 2002; North et al., 2003).

[4] = nicotinamide-treated EAE, days 24-30

## NC(=O)c1cccnc1 [nicotinamide, 3-pyridinecarboxamide]
[1]; exogenously applied
  axonal NAD levels after transection (HPLC): delayed the decrease of axonal NAD levels
[1]; exogenously provided
  ATP levels in transected axons separated from their somas: delayed the decrease of ATP levels
[2]; EAE mice, 27-28 days
  effect on dorsal corticospinal column and dorsal column (cuneate fasciculus) axons: significant protective effect
[2]; EAE mice, chow 500 mg/kg daily from day 10
  clinical course versus untreated EAE mice: less severe clinical course
[2]; EAE mice, chow 500 mg/kg daily from day 10, day 27-28 (untreated EAE 3-4)
  clinical score (0-6 scale): 1-2
[2]; mouse, in vivo
  clinical signs in nicotinamide-treated control mice: do not display any pathological clinical signs
  difference in density of neurofilament-labeled axons, untreated versus nicotinamide-treated controls: not significant
[2]; [4]
  average CAP amplitude and area versus nicotinamide-treated control group: not significantly different
  conduction velocity: maintained close to normal levels
[3]
  attenuation of the protective effect of Nmnat1 or NAD: did not attenuate the protective effect
